According to ChEMBL document CHEMBL1153670 (Bioorg Med Chem Lett, 1995):
pIC50: −log10 of the molar value.

Legend:
HCT-116 [1] = experiment: Potency relative to paclitaxel in a tubulin polymerization assay in HCT116 cell line; type: functional, Homo sapiens
HCT-116 [2] = experiment: In vitro cytotoxicity was determined by inhibition against HCT116 cell line proliferation after 72 hours of incubation; type: cell-based; details: Homo sapiens, HCT-116, 72 h
HCT-116 [3] = experiment: cells; details: Homo sapiens
M109 [4] = experiment: In vivo cytotoxicity of intraperitoneally administered compound at dose 6 mg/kg/inj was determined against ip implanted murine M-109 lung carcinoma; type: organism-based; parameters: route intraperitoneal; details: mouse
M109 [5] = experiment: In vivo cytotoxicity of intraperitoneally administered compound was determined against ip implanted murine M-109 lung carcinoma; NA means not active; type: organism-based; details: mouse
M109 [6] = experiment: In vivo cytotoxicity of intraperitoneally administered compound at dose 1 mg/kg/injection was determined against ip implanted murine M-109 lung carcinoma; type: organism-based; parameters: route intraperitoneal; details: mouse
M109 [7] = experiment: In vivo cytotoxicity of intraperitoneally administered compound at dose 4 mg/kg/inj was determined against ip implanted murine M-109 lung carcinoma; type: organism-based; parameters: route intraperitoneal; details: mouse

Compound	pIC50 (HCT-116 [3])	Tubulin polymerization ratio (HCT-116 [1])	pIC50 (HCT-116 [2])	T/C (M109 [4]) [mg kg-1 injection-1]	T/C (M109 [5])	T/C (M109 [6]) [mg kg-1 injection-1]	T/C (M109 [7]) [%]
CC(=O)O[C@H]1C(=O)[C@@]2(C)C([C@H](OC(=O)c3ccccc3)[C@]3(O)C[C@H](OC(=O)[C@H](O)C(NC(=O)c4ccccc4)c4ccccc4)C(C)=C1C3(C)C)[C@]1(OC(=O)CF)CO[C@@H]1C[C@@H]2O (stereo not given in full)	8.76	1.2	8.15	–	–	–	–
CCOC(=O)O[C@@]12CO[C@@H]1C[C@H](O)[C@@]1(C)C(=O)[C@H](OC(C)=O)C3=C(C)[C@@H](OC(=O)[C@H](O)C(NC(=O)c4ccccc4)c4ccccc4)C[C@@](O)([C@@H](OC(=O)c4ccccc4)C12)C3(C)C (stereo not given in full)	9.60	0.64	9.00	142	–	–	–
CC(=O)O[C@H]1C(=O)[C@@]2(C)C([C@H](OC(=O)c3ccccc3)[C@]3(O)C[C@H](OC(=O)[C@H](O)C(NC(=O)c4ccccc4)c4ccccc4)C(C)=C1C3(C)C)[C@]1(OC(=O)C3CC3)CO[C@@H]1C[C@@H]2O (stereo not given in full)	9.60	0.24	9.00	188	–	–	–
CC(=O)O[C@H]1C(=O)[C@@]2(C)C([C@H](OC(=O)c3ccccc3)[C@]3(O)C[C@H](OC(=O)[C@H](O)C(NC(=O)c4ccccc4)c4ccccc4)C(C)=C1C3(C)C)[C@]1(OC(=O)c3ccccc3)CO[C@@H]1C[C@@H]2O (stereo not given in full)	6.99	>60	6.39	–	–	–	–
CC(=O)O[C@H]1C(=O)[C@@]2(C)C([C@H](OC(=O)c3ccccc3)[C@]3(O)C[C@H](OC(=O)[C@H](O)C(C=C(C)C)NC(=O)OC(C)(C)C)C(C)=C1C3(C)C)[C@]1(OC(=O)C3CC3)CO[C@@H]1C[C@@H]2O (stereo not given in full)	8.55	0.36	8.11	–	Not Active	–	–
CC(=O)O[C@H]1C(=O)[C@@]2(C)C([C@H](OC(=O)c3ccccc3)[C@]3(O)C[C@H](OC(=O)[C@H](O)C(C=C(C)C)NC(=O)c4ccccc4)C(C)=C1C3(C)C)[C@]1(OC(=O)C3CC3)CO[C@@H]1C[C@@H]2O (stereo not given in full)	9.21	0.36	8.77	–	Not Active	–	–
CCCOC(=O)O[C@@]12CO[C@@H]1C[C@H](O)[C@@]1(C)C(=O)[C@H](OC(C)=O)C3=C(C)[C@@H](OC(=O)[C@H](O)C(NC(=O)OC(C)(C)C)c4ccco4)C[C@@](O)([C@@H](OC(=O)c4ccccc4)C12)C3(C)C (stereo not given in full)	9.22	0.71	8.52	–	Not Active	–	–
CC(=O)O[C@H]1C(=O)[C@@]2(C)C([C@H](OC(=O)c3ccccc3)[C@]3(O)C[C@H](OC(=O)[C@H](O)C(NC(=O)c4ccccc4)c4ccccc4)C(C)=C1C3(C)C)[C@]1(OC(=O)C3CCC3)CO[C@@H]1C[C@@H]2O (stereo not given in full)	9.42	0.44	8.82	–	Not Active	–	–
CCCC(=O)O[C@@]12CO[C@@H]1C[C@H](O)[C@@]1(C)C(=O)[C@H](OC(C)=O)C3=C(C)[C@@H](OC(=O)[C@H](O)C(NC(=O)OC(C)(C)C)c4ccco4)C[C@@](O)([C@@H](OC(=O)c4ccccc4)C12)C3(C)C (stereo not given in full)	9.15	0.5	8.55	–	–	96	–
C=CC(=O)O[C@@]12CO[C@@H]1C[C@H](O)[C@@]1(C)C(=O)[C@H](OC(C)=O)C3=C(C)[C@@H](OC(=O)[C@H](O)C(NC(=O)c4ccccc4)c4ccccc4)C[C@@](O)([C@@H](OC(=O)c4ccccc4)C12)C3(C)C (stereo not given in full)	8.82	0.42	8.22	–	–	–	–
CC(=O)O[C@H]1C(=O)[C@@]2(C)C([C@H](OC(=O)c3ccccc3)[C@]3(O)C[C@H](OC(=O)[C@H](O)C(NC(=O)OC(C)(C)C)c4ccco4)C(C)=C1C3(C)C)[C@]1(OC(=O)C3CCC3)CO[C@@H]1C[C@@H]2O (stereo not given in full)	9.32	0.48	8.72	–	Not Active	–	–
CC(=O)O[C@H]1C(=O)[C@@]2(C)C([C@H](OC(=O)c3ccccc3)[C@]3(O)C[C@H](OC(=O)[C@H](O)C(NC(=O)c4ccccc4)c4ccccc4)C(C)=C1C3(C)C)[C@]1(OC(=O)C3CCCC3)CO[C@@H]1C[C@@H]2O (stereo not given in full)	9.30	1.54	8.70	–	–	–	–
CC(=O)O[C@H]1C(=O)[C@@]2(C)C([C@H](OC(=O)c3ccccc3)[C@]3(O)C[C@H](OC(=O)[C@H](O)C(NC(=O)c4ccccc4)c4ccccc4)C(C)=C1C3(C)C)[C@]1(OC(=O)N3CC3)CO[C@@H]1C[C@@H]2O (stereo not given in full)	8.19	–	7.81	–	–	–	–
CCOC(=O)O[C@@]12CO[C@@H]1C[C@H](O)[C@@]1(C)C(=O)[C@H](OC(C)=O)C3=C(C)[C@@H](OC(=O)[C@H](O)C(NC(=O)OC(C)(C)C)c4ccco4)C[C@@](O)([C@@H](OC(=O)c4ccccc4)C12)C3(C)C (stereo not given in full)	9.23	0.3	8.53	–	–	–	144
CC(=O)O[C@H]1C(=O)[C@@]2(C)C([C@H](OC(=O)c3ccccc3)[C@]3(O)C[C@H](OC(=O)[C@H](O)C(NC(=O)OC(C)(C)C)c4ccco4)C(C)=C1C3(C)C)[C@]1(OC(=O)C3CC3)CO[C@@H]1C[C@@H]2O (stereo not given in full)	9.48	0.33	8.89	–	–	–	100

Second part, led by results:

pIC50 (HCT-116 [3])	Compound	Tubulin polymerization ratio (HCT-116 [1])	pIC50 (HCT-116 [2])	T/C (M109 [4]) [mg kg-1 injection-1]	T/C (M109 [5])	T/C (M109 [6]) [mg kg-1 injection-1]	T/C (M109 [7]) [%]
6.70	CC(=O)O[C@H]1C(=O)[C@@]2(C)C([C@H](OC(=O)c3ccccc3)[C@]3(O)C[C@H](OC(=O)[C@H](O)C(NC(=O)c4ccccc4)c4ccccc4)C(C)=C1C3(C)C)[C@]1(OC(=O)c3ccc(F)cc3)CO[C@@H]1C[C@@H]2O (stereo not given in full)	61	6.10	–	–	–	–
9.37	CCOC(=O)O[C@@]12CO[C@@H]1C[C@H](O)[C@@]1(C)C(=O)[C@H](OC(C)=O)C3=C(C)[C@@H](OC(=O)[C@H](O)C(NC(=O)c4ccccc4)c4ccco4)C[C@@](O)([C@@H](OC(=O)c4ccccc4)C12)C3(C)C (stereo not given in full)	0.4	8.82	–	Not Active	–	–
8.64	CC(=O)O[C@H]1C(=O)[C@@]2(C)C([C@H](OC(=O)c3ccccc3)[C@]3(O)C[C@H](OC(=O)[C@H](O)C(NC(=O)c4ccccc4)c4ccccc4)C(C)=C1C3(C)C)[C@]1(OC(=O)NC3CCC3)CO[C@@H]1C[C@@H]2O (stereo not given in full)	0.76	8.04	–	–	–	–
9.24	COC(=O)O[C@@]12CO[C@@H]1C[C@H](O)[C@@]1(C)C(=O)[C@H](OC(C)=O)C3=C(C)[C@@H](OC(=O)[C@H](O)C(NC(=O)c4ccccc4)c4ccco4)C[C@@](O)([C@@H](OC(=O)c4ccccc4)C12)C3(C)C (stereo not given in full)	0.33	8.64	–	Not Active	–	–
< 6.70	CC(=O)O[C@H]1C(=O)[C@@]2(C)C([C@H](OC(=O)c3ccccc3)[C@]3(O)C[C@H](OC(=O)[C@H](O)C(NC(=O)c4ccccc4)c4ccccc4)C(C)=C1C3(C)C)[C@]1(O)CO[C@@H]1C[C@@H]2O (stereo not given in full)	200	< 6.00	–	–	–	–
9.17	CCCOC(=O)O[C@@]12CO[C@@H]1C[C@H](O)[C@@]1(C)C(=O)[C@H](OC(C)=O)C3=C(C)[C@@H](OC(=O)[C@H](O)C(NC(=O)c4ccccc4)c4ccccc4)C[C@@](O)([C@@H](OC(=O)c4ccccc4)C12)C3(C)C (stereo not given in full)	0.76	8.59	–	–	–	–
9.30	CCC(=O)O[C@@]12CO[C@@H]1C[C@H](O)[C@@]1(C)C(=O)[C@H](OC(C)=O)C3=C(C)[C@@H](OC(=O)[C@H](O)C(NC(=O)c4ccccc4)c4ccccc4)C[C@@](O)([C@@H](OC(=O)c4ccccc4)C12)C3(C)C (stereo not given in full)	1.5	8.70	–	–	–	–
8.96	CC(=O)O[C@H]1C(=O)[C@@]2(C)C([C@H](OC(=O)c3ccccc3)[C@]3(O)C[C@H](OC(=O)[C@H](O)C(NC(=O)c4ccccc4)c4ccccc4)C(C)=C1C3(C)C)[C@]1(OC(=O)C(Cl)(Cl)Cl)CO[C@@H]1C[C@@H]2O (stereo not given in full)	0.68	8.40	–	–	–	–
6.60	CC(=O)O[C@H]1C(=O)[C@@]2(C)C([C@H](OC(=O)c3ccccc3)[C@]3(O)C[C@H](OC(=O)[C@H](O)C(NC(=O)c4ccccc4)c4ccccc4)C(C)=C1C3(C)C)[C@]1(OC(=O)n3ccnc3)CO[C@@H]1C[C@@H]2O (stereo not given in full)	263	6.10	–	–	–	–
8.90	CC(=O)O[C@H]1C(=O)[C@@]2(C)C([C@H](OC(=O)c3ccccc3)[C@]3(O)C[C@H](OC(=O)[C@H](O)C(NC(=O)c4ccccc4)c4ccccc4)C(C)=C1C3(C)C)[C@]1(OC(=O)C(C)C)CO[C@@H]1C[C@@H]2O (stereo not given in full)	0.46	8.30	–	–	–	–
9.24	C/C=C/C(=O)O[C@@]12CO[C@@H]1C[C@H](O)[C@@]1(C)C(=O)[C@H](OC(C)=O)C3=C(C)[C@@H](OC(=O)[C@H](O)C(NC(=O)c4ccccc4)c4ccccc4)C[C@@](O)([C@@H](OC(=O)c4ccccc4)C12)C3(C)C (stereo not given in full)	0.7	8.64	–	–	–	–
8.82	CCCCCC(=O)O[C@@]12CO[C@@H]1C[C@H](O)[C@@]1(C)C(=O)[C@H](OC(C)=O)C3=C(C)[C@@H](OC(=O)[C@H](O)C(NC(=O)c4ccccc4)c4ccccc4)C[C@@](O)([C@@H](OC(=O)c4ccccc4)C12)C3(C)C (stereo not given in full)	3.4	8.22	–	–	–	–
9.30	CCCCC(=O)O[C@@]12CO[C@@H]1C[C@H](O)[C@@]1(C)C(=O)[C@H](OC(C)=O)C3=C(C)[C@@H](OC(=O)[C@H](O)C(NC(=O)c4ccccc4)c4ccccc4)C[C@@](O)([C@@H](OC(=O)c4ccccc4)C12)C3(C)C (stereo not given in full)	1.04	8.70	–	–	–	–
